Measurements from the NIST ThermoML archive (doi:10.1016/j.tca.2017.08.004).

How the values were obtained:
[1] = Crystal; for vapor or sublimation pressure: Transpiration method
[2] = Molar enthalpy of transition or fusion; conditions: Crystal; DSC

CC(=O)c1ccc(N=C2SCC3CCCN2C3)cc1 (stereo unspecified)
[1]
Conditions	vapor or sublimation pressure [kPa]
370.15 K	1.72e-05
372.15 K	2.17e-05
373.15 K	2.52e-05
374.15 K	2.65e-05
375.15 K	3.08e-05
377.15 K	3.73e-05
379.15 K	4.55e-05
381.15 K	5.67e-05
383.15 K	6.72e-05
385.15 K	8.05e-05
387.15 K	9.63e-05
389.15 K	0.0001225
390.15 K	0.0001287
391.15 K	0.0001437
392.15 K	0.0001637

N#Cc1ccc(N=C2SCC3CCCN2C3)cc1 (stereo unspecified)
[1]
Conditions	vapor or sublimation pressure [kPa]
341.15 K	4.41e-05
343.15 K	6.35e-05
345.15 K	8.28e-05
347.15 K	0.0001196
349.15 K	0.0001553
351.15 K	0.0002074
353.15 K	0.0002772
354.15 K	0.0002989
356.15 K	0.0004234
358.15 K	0.000541
360.15 K	0.0007001
361.15 K	0.0008286

Fc1ccc(N=C2[Se]CC3CCCN2C3)cc1 (stereo unspecified) [N-(4-fluorophenyl)-3-selena-1-azabicyclo[3.3.1]nonan-2-imine]
[1]
Conditions	Normal melting temperature [°C]	vapor or sublimation pressure [kPa]
344.15 K	–	6.71e-05
346.15 K	–	8.23e-05
348.15 K	–	0.0001009
350.15 K	–	0.0001254
352.15 K	–	0.0001539
354.15 K	–	0.0001821
357.15 K	–	0.0002441
359.15 K	–	0.0002956
360.15 K	–	0.0003273
361.15 K	–	0.00036
362.15 K	–	0.0003964
363.15 K	–	0.0004316
364.15 K	–	0.0004719
365.15 K	–	0.0005306
DTA	103.1	–

Conditions	Molar enthalpy of transition or fusion [kcal/mol]
[2]	5.23

CC(C)c1ccc(N=C2SCC3CCCN2C3)cc1 (stereo unspecified)
[1]
Conditions	vapor or sublimation pressure [kPa]
308.15 K	7.9e-06
310.15 K	1.01e-05
311.15 K	1.19e-05
313.15 K	1.61e-05
314.15 K	1.86e-05
315.15 K	2.13e-05
316.15 K	2.3e-05
317.15 K	2.74e-05
318.15 K	3.07e-05
319.15 K	3.29e-05
320.15 K	3.89e-05
322.15 K	4.8e-05
323.15 K	5.57e-05
